Results on 12 compounds are retold here after ChEMBL document CHEMBL1201862, “PubChem BioAssay data set” (2004).

Test systems include ACHN; OVCAR-8; EKVX; MDA-N; T47D; Hs-578T; SF-268; COLO 205; CAKI-1; KM12; SK-MEL-28; HCT-116; MDA-MB-435; HT-29; RXF 393; A498; NCI-H226; HL-60; OVCAR-4.
What all share (experiment): NCI-60 cell line screen, 48 h

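1) Cells in 96-well plates. 2) Compound, 48 h, 5 concentrations. 3) Linear interpolation between surrounding doses. 4) Unreached endpoint = highest concentration. GI50 marks 50% less growth.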 The source made the active and inactive calls. No stated cut-off is given here; in the data, active = GI50 up to about 1.1 µM and inactive = higher.

Consider `COC(=O)c1c[nH]c(=O)[nH]c1=O` [ISOOROTIC ACID METHYL ESTER], for which the GI50 in the assay with ACHN, in the assay on OVCAR-8, with EKVX, in the assay with MDA-N, with T47D and with Hs-578T was > 100 µM (inactive) each time. The GI50 in the assay on SF-268, in the assay with COLO 205, with CAKI-1, in the assay with KM12, with SK-MEL-28 and in the assay on HCT-116 was > 100 µM (inactive) in each case. In addition, the GI50 in the assay with MDA-MB-435 was > 100 µM (inactive).
With `CC1C2(C)OC(=N)C(C#N)(C(c3ccco3)O2)C1(C#N)C#N` (configuration not stated), the GI50 with ACHN is 36.6 µM (inactive); in the assay on HT-29, 32.8 µM (inactive); with RXF 393, 22.6 µM (inactive); in the assay on OVCAR-8, 39.9 µM (inactive); in the assay with EKVX it was 34 µM (inactive); in the assay with MDA-N it was 19.8 µM (inactive). In addition, the GI50 in the assay with A498 was > 100 µM (inactive); with T47D, 17.8 µM (inactive); in the assay on Hs-578T it was 24.9 µM (inactive); with SF-268, 29 µM (inactive); with COLO 205, 13.6 µM (inactive); with CAKI-1 it was 14.4 µM (inactive). Further, the GI50 in the assay on NCI-H226 was > 100 µM (inactive); in the assay with KM12, 59.8 µM (inactive); in the assay with SK-MEL-28, 18.4 µM (inactive); with HL-60 it was 18.8 µM (inactive); with HCT-116, 26.7 µM (inactive).
On to `CSC1=NN=C(SC)NN1`, for which the GI50 in the assay with ACHN is 0.168 µM (active); in the assay on HT-29, 0.173 µM (active); with OVCAR-8, 0.285 µM (active); with EKVX, 0.186 µM (active); in the assay on MDA-N, 0.18 µM (active); in the assay on T47D, 0.142 µM (active). Also, the GI50 is 0.161 µM (active) with Hs-578T; 0.189 µM (active) with SF-268; 0.198 µM (active) in the assay on COLO 205; 0.173 µM (active) with CAKI-1; 0.181 µM (active) in the assay with NCI-H226; 0.192 µM (active) in the assay with KM12. The GI50 in the assay on SK-MEL-28 was 0.186 µM (active); in the assay with HL-60 it was 0.0369 µM (active); with HCT-116, 0.167 µM (active); with OVCAR-4, 0.172 µM (active); in the assay with MDA-MB-435, 0.182 µM (active).
For `COc1ccc(OC2OC(CO)C(O)C(O)C2O)cc1` (configuration not stated), the GI50 in the assay on ACHN, in the assay with HT-29, in the assay on OVCAR-8, in the assay with EKVX, with MDA-N and in the assay on A498 was > 100 µM (inactive) throughout. Moreover, the GI50 in the assay on T47D, in the assay with Hs-578T, with SF-268, in the assay with COLO 205, with CAKI-1 and in the assay on NCI-H226 was > 100 µM (inactive) in each case. The GI50 in the assay with KM12, in the assay on SK-MEL-28, in the assay on HL-60, with HCT-116 and in the assay on MDA-MB-435 was > 100 µM (inactive) in each case.
As to `COc1c(O)c(OC)c(C(=O)/C=C/c2ccccc2)c(O)c1OC` [PEDICIN], the GI50 is 23.6 µM (inactive) in the assay with ACHN; 32.6 µM (inactive) in the assay with HT-29; 17.9 µM (inactive) in the assay on OVCAR-8; 23.1 µM (inactive) in the assay with EKVX; 20.9 µM (inactive) in the assay on MDA-N; 20.9 µM (inactive) with T47D. Moreover, the GI50 was 30.5 µM (inactive) in the assay on Hs-578T; 29 µM (inactive) with SF-268; 41.7 µM (inactive) in the assay on COLO 205; 56.1 µM (inactive) with CAKI-1; 29.4 µM (inactive) in the assay on NCI-H226; 30.3 µM (inactive) in the assay on KM12. The GI50 in the assay with SK-MEL-28 was 33.3 µM (inactive); with HL-60, 58.2 µM (inactive); with HCT-116 it was 17.7 µM (inactive); in the assay on OVCAR-4, 27.9 µM (inactive); with MDA-MB-435, 27.9 µM (inactive).
In the case of `Cc1c(C(=O)O)c2cc3ccccc3cc2c(=O)n1C`, the GI50 in the assay on ACHN, in the assay with HT-29, in the assay with RXF 393, with OVCAR-8, in the assay on EKVX and in the assay on MDA-N was > 10 µM (inactive) in each case. The GI50 with T47D, in the assay with Hs-578T, in the assay on SF-268, in the assay with NCI-H226, in the assay on KM12 and in the assay on HL-60 was > 10 µM (inactive) in each case. Also, the GI50 in the assay on OVCAR-4 and in the assay on MDA-MB-435 was > 10 µM (inactive) in each case.
As for `CC1CC(=O)Nc2ccc(/N=N/N(C)C)cc2N1C=O` (configuration not stated), the GI50 in the assay on ACHN, in the assay on HT-29, with RXF 393, in the assay on OVCAR-8, with EKVX and with MDA-N was > 100 µM (inactive) each time. For the same compound, the GI50 in the assay with T47D, in the assay on Hs-578T, in the assay on SF-268, in the assay on COLO 205, with CAKI-1 and in the assay with NCI-H226 was > 100 µM (inactive) throughout. For the same compound, the GI50 in the assay on KM12, in the assay with SK-MEL-28, with HCT-116, with OVCAR-4 and in the assay on MDA-MB-435 was > 100 µM (inactive) in each case.
`CCOC(=O)/C=C(/C(=O)OCC)n1cnc2c(=O)[nH]c(NC(C)=O)nc21`: the GI50 in the assay with ACHN, in the assay with HT-29, in the assay with OVCAR-8, in the assay with EKVX, in the assay on MDA-N and in the assay with A498 was > 100 µM (inactive) in each case. Also, the GI50 with T47D, in the assay with Hs-578T, in the assay with SF-268, with COLO 205, in the assay on CAKI-1 and in the assay on NCI-H226 was > 100 µM (inactive) in each case. The GI50 in the assay with KM12, with SK-MEL-28, in the assay with HL-60, in the assay with HCT-116, in the assay with OVCAR-4 and in the assay with MDA-MB-435 was > 100 µM (inactive) each time.
Turning to `Cc1ccc(-n2nncc2[Si](C)(C)C)s1`, the GI50 with ACHN, with HT-29, with OVCAR-8, with MDA-N, in the assay with A498 and with T47D was > 100 µM (inactive) each time. Moreover, the GI50 in the assay on Hs-578T, with SF-268, in the assay with COLO 205, in the assay with CAKI-1, with NCI-H226 and in the assay on SK-MEL-28 was > 100 µM (inactive) each time. The GI50 in the assay with HCT-116, with OVCAR-4 and with MDA-MB-435 was > 100 µM (inactive) each time.
For the compound `CC12CC1C(c1cccc([N+](=O)[O-])c1)(c1cccc([N+](=O)[O-])c1)N=N2` (configuration not stated), the GI50 in the assay on ACHN is 15.8 µM (inactive); in the assay with HT-29, 28 µM (inactive); in the assay with OVCAR-8, 25.1 µM (inactive); with EKVX, 37.7 µM (inactive); in the assay with MDA-N, 23.2 µM (inactive); in the assay with A498 it was 4.28 µM (inactive). Further, the GI50 was 25.8 µM (inactive) with T47D; 21.9 µM (inactive) in the assay with Hs-578T; 27.7 µM (inactive) in the assay with SF-268; 21.6 µM (inactive) in the assay on COLO 205; 25.3 µM (inactive) with NCI-H226; 19.6 µM (inactive) in the assay with KM12. Further, the GI50 in the assay on SK-MEL-28 is 22.1 µM (inactive); in the assay on HL-60, 13 µM (inactive); in the assay on HCT-116, 15.8 µM (inactive); in the assay with OVCAR-4 it was 23.1 µM (inactive); in the assay with MDA-MB-435, 36.5 µM (inactive).
For `CN1C(=O)[C@@H]2N(CSC2(C)C)C1=S`, the GI50 in the assay on ACHN, in the assay on HT-29, in the assay on RXF 393, with OVCAR-8, with EKVX and in the assay on MDA-N was > 100 µM (inactive) in each case. Besides, the GI50 with A498, in the assay with T47D, with SF-268, in the assay on COLO 205, with CAKI-1 and with NCI-H226 was > 100 µM (inactive) each time. The GI50 with KM12, with SK-MEL-28, with HCT-116, with OVCAR-4 and in the assay on MDA-MB-435 was > 100 µM (inactive) in each case.
Regarding `C=C1CCCC(C)(C)[C@H]1C/C=C1\CCOC1=O`, the GI50 in the assay with ACHN is 15.7 µM (inactive); in the assay on HT-29, 13.9 µM (inactive); with OVCAR-8, 17.7 µM (inactive); in the assay with EKVX, 15.9 µM (inactive); in the assay on MDA-N, 17.9 µM (inactive); in the assay on A498 it was 17.2 µM (inactive). The GI50 with T47D is 54.2 µM (inactive); in the assay with Hs-578T, 16.9 µM (inactive); in the assay with SF-268, 9.04 µM (inactive); in the assay with COLO 205, 19.3 µM (inactive); in the assay on CAKI-1, 16.6 µM (inactive); with NCI-H226 it was 9.89 µM (inactive). Further, the GI50 in the assay with KM12 was 17.9 µM (inactive); in the assay with SK-MEL-28 it was 16.1 µM (inactive); with HL-60, 11.5 µM (inactive); with HCT-116, 12.6 µM (inactive); with OVCAR-4 it was 11 µM (inactive); in the assay on MDA-MB-435, 10.3 µM (inactive).
